# From PMC11862611 (RSC Medicinal Chemistry, 2025)
# Counter-ions that a name gives are not always drawn. Like-named read-outs stand apart in the source and are kept apart here.
# What was measured:
# [1] = system: L. major PX promastigotes; assay: on-target growth inhibition, add-back cell line (PX); type: cell-based, Leishmania major
# [2] = system: L. amazonensis GFP promastigotes; assay: mouse model of L. amazonensis infection (ear, IL dosing); type: in vivo, BALB/c mice; details: 1.2 mg kg^−1 IL twice a week for 4 weeks
# Description: Consequently, we used IL dosing for this experiment. To enable direct comparison with CF, the same treatment regimen (dose of 1.2 mg kg^−1via IL injection twice a week for 4 weeks starting on DPI) was used for both compounds.
# A Weight variation of mice during 28 days of treatment. B Progression of lesion thickness over 28 day treatment period. C Representative photographs of the infected ear for each group taken after completion of treatment, D parasite burden was evaluated by LDA on 36 days post infection. […]
# In vivo assays were conducted as previously reported 1. Two month old BALB/c female mice, weighing 20 - 25 g and of approximately the same age were used for the study. For infection of mice, stationary phase GFP L. amazonensis promastigotes were collected, washed and suspended in sterile PBS. A volume of 10 μl of sterile PBS containing 2 x 10^6 parasites was injected into the right ear. […]
# Infected ear thicknesses were measured once or twice a week with a caliper gauge, and the lesion sizes were expressed as the difference between the thickness of infected and non-infected ear. On day 41 animals were sacrificed and the fluorescence measured (485 - 528 nm) and parasite load quantified using a limiting dilution assay (LDA).
# Data on lesion progression were analysed for statistical significance by using the Dunnett test as part of the one-way ANOVA (GraphPad Prism 8 software). […]
# [3] = system: panel of neurotransmitter receptors; assay: radioligand displacement assay, whole panel; type: binding, human
# Description: 4.2.3.6. Radioligand Binding Assay (Supplemental Figure S3)
# These assays were run by Eurofins under contract to LifeArc FR095-0011887. A representative protocol describing the human histamine H2 receptor (antagonist radioligand) assay is shown below.12 Cell membrane homogenates (24 µg protein) are incubated for 120 min at 22°C with 0.075 nM [125I]APT in the absence or presence of the test compound in a buffer containing 50 mM Na2HPO4/KH2PO4 (pH […]
# 7.4) and 0.05% BSA. […] Following
# [4] = target: T1, L. majIPCS (Leishmania major, UniProt E9AFX2); assay: inhibition of microsomal enzyme preparation of L. majIPCS; type: biochemical; details: for inhibition at 20 µM: read-out: LmjIPCS inhibition % at 20 µM ± SD
# T1 construct: made in house
# T1 sequence (E9AFX2 1-338): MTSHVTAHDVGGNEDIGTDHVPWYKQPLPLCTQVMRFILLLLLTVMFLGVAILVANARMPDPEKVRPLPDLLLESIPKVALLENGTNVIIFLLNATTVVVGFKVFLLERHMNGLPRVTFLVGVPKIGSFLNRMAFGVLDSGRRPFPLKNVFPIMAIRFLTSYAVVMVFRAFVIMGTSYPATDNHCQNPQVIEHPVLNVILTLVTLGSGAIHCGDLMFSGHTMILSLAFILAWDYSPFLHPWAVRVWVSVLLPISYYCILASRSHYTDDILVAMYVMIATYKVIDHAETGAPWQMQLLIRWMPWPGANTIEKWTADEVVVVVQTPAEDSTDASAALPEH
# Source text: When tested against microsomal enzyme preparations of L. majIPCS[16] (Fig. 2, Table S1 ^†) the comparisons of pyrrolidine, tetrahydrofuran and cyclopentane derivatives 19, 21–23 supported earlier observations that all active compounds retained a basic nitrogen in the head group.[17] In general, whilst enzyme inhibitory activity was retained in a number of these analogues, much lower activity was observed against promastigote parasites. […] Speculating that this lower activity in promastigote parasite assays reflected a (membrane) transport issue, we then explored the corresponding ether derivative 27. Attempts to prepare this by acid catalysed ether formation failed and ultimately this was achieved through displacement of the corresponding benzylic chloride 25 (Scheme 3).
# Fig. 2 Activity of a selection of simple amide and triazole linked CF analogues against a microsomal preparation of L. majIPCS and L. major promastigote parasites, respectively.
# [5] = system: L. major promastigotes (FV1) WT; assay: anti-promastigote assay, L. major (resazurin); type: cell-based; details: Leishmania major
# Description: 4.2.3.1. Anti-promastigote assays
# L. major promastigotes (FV1) WT, PX and Δ LCB2 in Schneider’s insect medium (100 μL at 1 × 106 mL−1) were incubated in 96-well plates with compounds in triplicate (amphotericin B and cycloheximide were used as positive controls, and untreated parasites with 1% DMSO as a negative control) at 26 °C for 48 h.
# Resazurin Solution (10 μL) was then added and the plate incubated at 26 °C for 4 h prior to measurement using a fluorescence plate reader (555 - 585 nm). EC50 values were calculated using sigmoidal regression analysis (GraphPad Prism). […]
# (§1) well-1 in a 24-well plate with round cover slips and incubated for 24 h at 37 °C and 5% CO2. […]
# [6] = system: L. amazonensis promastigotes; assay: anti-promastigote assay, L. amazonensis (resazurin); type: cell-based; details: Leishmania amazonensis
# Description: 4.2.3.1. Anti-promastigote assays […]
# Protocol 1: L. amazonensis promastigotes in Medium 199 (100 μL at 5 × 105 mL−1) were incubated in 96-well plates with compounds in triplicate (amphotericin B was used as a positive control, and untreated parasites with DMSO as a negative control) at 26 °C for 72 h. Resazurin Solution (10 μL) was then added and the plate incubated at 26 °C for 4 h prior to measurement using a fluorescence plate reader (555 - 585 nm). EC50 values were calculated using sigmoidal regression analysis (GraphPad Prism).
# Protocol 2: Same procedure as above with the modification of a 48 h incubation time as opposed to 72 h and Leishmania amazonensis (MHOM/Br/75/JOSEFA) in Schneider’s insect medium in the place of Leishmania amazonensis (MHOM/Br/75/JOSEFA) in Medium 199. […]
# as §1
# [7] = promastigotes, 48 h, read-out: L. major promastigote EC50
# [8] = promastigote parasites (Table 1), read-out: L.mj EC50
# [9] = promastigote parasites (Table 1), read-out: L.amaz EC50
# [10] = 48 h, read-out: L. major promastigote EC50
# [11] = read-out: L. amaz promastigote EC50
structure (smiles),measurement,setting,value
"CN1CCC[C@@H]1CCO[C@](C)(c1ccccc1)c1ccc(Cl)cc1 [1a, clemastine fumarate, reference compound]",sensitivity in the add-back cell line (PX),[1],Sensitivity was restored
same,lesion growth trends,[2]; 35 days post-infection,similar
same,parasitaemia (parasite burden by LDA) versus untreated group,[2]; LDA 36 days post infection,statistically significant reduction
same,binding profile across receptor panel,[3],activity against a broad representation of receptor sub-types
CN1CCC[C@H]1c1cn(C(c2ccccc2)c2ccc(Cl)cc2)nn1 (stereo partly drawn) [14a],IC50,[4],14.5 µM
same,inhibition at 20 µM,"[4]; 20 µM, microsomal preparation",60.6 ± 9.2%
same,EC50,[5]; [7],> 33 µM
CN1CCCC1c1cn(C(c2ccccc2)c2ccc(Cl)cc2)nn1 (stereo not drawn) [14b],IC50,[4],8.49 µM
same,inhibition at 20 µM,"[4]; 20 µM, microsomal preparation",71 ± 9.7%
same,EC50,[5]; [7],> 33 µM
C[C@H]1CCCN1CCOC(c1ccccc1)c1ccc(Cl)cc1 (stereo partly drawn) [38a],EC50,[5]; read-out: L.mj EC50,2.05 µM
same,EC50,[6]; read-out: L.amaz EC50,3.4 µM
C[C@@H]1CCCN1CCOC(c1ccccc1)c1ccc(Cl)cc1 (stereo partly drawn) [38b],EC50,[5]; read-out: L.mj EC50,2.65 µM
same,EC50,[6]; read-out: L.amaz EC50,4.1 µM
COC(=O)[C@H]1CCCN1CCOC(c1ccccc1)c1ccc(Cl)cc1 (stereo partly drawn) [38c],EC50,[5]; read-out: L.mj EC50,23.8 µM
same,EC50,[6]; read-out: L.amaz EC50,17.4 µM
OC[C@H]1CCCN1CCOC(c1ccccc1)c1ccc(Cl)cc1 (stereo partly drawn) [38d],EC50,[5]; read-out: L.mj EC50,5.88 µM
same,EC50,[6]; read-out: L.amaz EC50,3.2 µM
COC[C@H]1CCCN1CCOC(c1ccccc1)c1ccc(Cl)cc1 (stereo partly drawn) [38e],EC50,[5]; read-out: L.mj EC50,14.4 µM
same,EC50,[6]; read-out: L.amaz EC50,12.3 µM
Clc1ccc(C(OCCN2CCCC2)c2ccccc2)cc1 (stereo not drawn) [38f],EC50,[6]; read-out: L.amaz EC50,3.27 µM
C[C@H]1CCCN1CCCCOC(c1ccccc1)c1ccc(Cl)cc1 (stereo partly drawn) [38g],EC50,[5]; [8],1.21 µM
C[C@H]1CCCN1CCCOC(c1ccccc1)c1ccc(Cl)cc1 (stereo partly drawn) [38h],EC50,[5]; [8],0.09 µM
C[C@H]1CCCN1CCO[C@@H](c1ccccc1)c1ccc(Cl)cc1 [38i],EC50,[5]; read-out: L.mj EC50,7.05 µM
C[C@@H]1CCCN1CCO[C@@H](c1ccccc1)c1ccc(Cl)cc1 [38j],EC50,[5]; read-out: L.mj EC50,11.5 µM
C[C@@H]1CCCN1CCO[C@H](c1ccccc1)c1ccc(Cl)cc1 [38k],EC50,[5]; read-out: L.mj EC50,1.7 µM
same,EC50,[6]; read-out: L.amaz EC50,3.2 µM
C[C@@H]1CCCN1CCCO[C@H](c1ccccc1)c1ccc(Cl)cc1 [38m],EC50,[5]; [8],0.031 µM
same,EC50,[6]; [9],0.042 µM
CC1(C)CCCN1CCCO[C@H](c1ccccc1)c1ccc(Cl)cc1 [38n],EC50,[5]; [8],0.027 µM
same,EC50,[6]; [9],0.017 µM
Clc1ccc([C@H](OCCCN2CCCC2)c2ccccc2)cc1 [38o],EC50,[5]; [8],0.08 µM
same,EC50,[6]; [9],0.1 µM
Clc1ccc(C(OCCC2CCCN2)c2ccccc2)cc1 (stereo not drawn) [compound 7],IC50,[4],6.26 µM
same,inhibition at 20 µM,[4],78.1 ± 12.5%
same,EC50,[5]; [10],4.1 µM
CN1CCC[C@H]1CCOC(c1ccccc1)c1ccc(Cl)cc1 (stereo partly drawn) [compound 9],IC50,[4],4.45 µM
same,inhibition at 20 µM,[4],81.2 ± 10.6%
same,EC50,[5]; [10],1.69 µM
CN1CCC[C@@H]1CCOC(c1ccccc1)c1ccc(Cl)cc1 (stereo partly drawn) [compound 10],IC50,[4],4.13 µM
same,inhibition at 20 µM,[4],78.1 ± 9.7%
same,EC50,[5]; [10],0.78 µM
O=C(NCC1CCCN1)C(c1ccccc1)c1ccc(Cl)cc1 (stereo not drawn) [compound 19],IC50,[4],6.9 µM
same,inhibition at 20 µM,"[4]; 20 µM, microsomal preparation",81.2 ± 1.3%
same,EC50,[5]; [7],> 33 µM
O=C(CC1CCCN1)NC(c1ccccc1)c1ccc(Cl)cc1 (stereo not drawn) [compound 21],IC50,[4],6.95 µM
same,inhibition at 20 µM,"[4]; 20 µM, microsomal preparation",82.7%
same,EC50,[5]; [7],> 33 µM
O=C(NCC1CCCO1)C(c1ccccc1)c1ccc(Cl)cc1 (stereo not drawn) [compound 22],inhibition at 20 µM,"[4]; 20 µM, microsomal preparation",2.9 ± 1.4%
O=C(CC1CCCC1)NC(c1ccccc1)c1ccc(Cl)cc1 (stereo not drawn) [compound 23],inhibition at 20 µM,"[4]; 20 µM, microsomal preparation",-5.4 ± 2.3%
CN(C)CCn1ncc2ccc(NC(=O)C(c3ccccc3)c3ccc(Cl)cc3)cc21 (stereo not drawn) [compound 24],IC50,[4],2.41 µM
same,inhibition at 20 µM,"[4]; 20 µM, microsomal preparation",90.2 ± 2.4%
same,EC50,[5]; [7],> 10 µM
CN(C)CCn1ncc2ccc(COC(c3ccccc3)c3ccc(Cl)cc3)cc21 (stereo not drawn) [compound 27],IC50,[4],4.72 µM
same,EC50,[5]; [7],> 5 µM
CN1CCC[C@@H]1CCOC(c1ccccc1)c1ccccc1 [compound 28],EC50,[5]; [10],8.44 µM
same,EC50,[6]; [11],1.17 µM
CN1CCC[C@@H]1CCOC(c1ccccc1)c1ccc(Br)cc1 (stereo partly drawn) [compound 29],IC50,[4],3.21 µM
same,EC50,[5]; [10],1.36 µM
COc1ccc(C(OCC[C@H]2CCCN2C)c2ccccc2)cc1 (stereo partly drawn) [compound 30],EC50,[5]; [10],6.83 µM
same,EC50,[6]; [11],0.5 µM
COc1cccc(C(OCC[C@H]2CCCN2C)c2ccccc2)c1 (stereo partly drawn) [compound 31],EC50,[5]; [10],8.44 µM
same,EC50,[6]; [11],0.63 µM
CN1CCC[C@@H]1CCOC(c1ccccc1)c1ccc(F)cc1 (stereo partly drawn) [compound 32],EC50,[5]; [10],2.25 µM
same,EC50,[6]; [11],1.62 µM
CN1CCC[C@@H]1CCOC(c1ccc(F)cc1)c1ccc(F)cc1 [compound 33],EC50,[5]; [10],2.87 µM
same,EC50,[6]; [11],2.74 µM
CN1CCC[C@@H]1CCO[C@H](c1ccccc1)c1ccc(Cl)cc1 [compound 35],EC50,[5]; [10],0.13 µM
same,binding profile across receptor panel,[3],activity against a broad representation of receptor sub-types
same,EC50,[6]; [11],0.101 µM
CN1CCC[C@@H]1CCO[C@@H](c1ccccc1)c1ccc(Cl)cc1 [compound 37],EC50,[5]; [10],1.33 µM
same,EC50,[6]; [11],1.4 µM
